Tested on: HCMV infected cells
Assay: CTL analysis of HPLC purified pp65-CNBr digest peptides
Assay type: cell-based, human
Conditions: identification method: by experiment
Description: For chemical cleavage with CNBr, pp65 was dissolved in 60% formic acid and treated overnight under argon with a 100 fold molar excess of CNBr (over methionine residues). The solvent was evaporated at room temperature under a stream of argon, the residue resuspended in water and lyophilized. The peptides were fractionated by HPLC on a Vydac C4 reverse phase column, using a 90-minute linear gradient from 100% solvent A (0.1% TFA) to 100% solvent B (TFA/H2O/CH3CN, 0.1/9.9/90, v/v/v/). The HPLC purified peaks from map A were subjected to amino acid sequencing (performed by City of Hope) and from map B were used for CTL analysis (performed at the Fred Hutchinson Cancer Center).
Figure 4 is a map produced by the HPLC analysis. The HPLC purified peptide peaks designated by asterisks in Figure 4 were sequenced. These peptides correspond to sequences 1 through 6 (Sequence ID Nos. 1-6), of this application. The invention includes the use of these six peptides or portions thereof to lyse HCMV infected cells, and as immunogens in HCMV vaccines and skin test formulations.

## SEQ ID NO:6: C-terminal fragment of HCMV pp65 protein, 62 amino acid residues, amino acid 500-561
  induction of CTLs that lyse HCMV infected cells: Induces CTLs that lyse HCMV infected cells

## SEQ ID NO:1: Fragment of pp65 protein expressed by HCMV (Towne), 98 amino acid residues, amino acid 12-109
  induction of CTLs that lyse HCMV infected cells: Induces CTLs that lyse HCMV infected cells
